“Also recorded” adds a separate entry of the source.
What was measured:
[1] = system: HL-60, KG-1, MonoMac-1 and Kasumi-1 AML cell lines; experiment: Cell viability of AML cell lines by flow cytometry (7-AAD/Hoechst, volumetric count); type: cell-based, human
Procedure: FIG. 1. […] 10^6 HL-60, KG-1, MonoMac-1 and Kasumi-1 cells per mL in complete RPMI media were treated with 0.1, 1 and 10 μM Apomorphine for 72 h. […] Cells were stained with 7-aminoactinomycin D (7-AAD, CAS no. 7240-37-1) and Hoechst 33342 (CAS no. 23491-52-3) and analyzed by flow cytometry. […] Cell number was calculated by volumetric count. A. The mean (symbol) for each AML cell line and standard deviation (error bars) from 6 different biological replicates are represented. B. The average corresponding to the four different AML cell lines is represented. *p<0.05.
FIG. 2. […] Cell number was calculated by volumetric count. A. The mean (symbol) for each AML cell line and standard deviation (error bars) from 6 different biological replicates are represented. B. AML cell lines were treated with 10 μM Apomorphine or Methiothepin in the presence or absence of 5-CT or 5-HT. *p<0.05. Apo: apomorphine; Methio: methiothepine.
In order to test the anti-leukaemic effect of 5HTR antagonists, HL-60 (Collins, Gallo et al. Nature. 1977; 270(5635):347-9), MonoMac-1 (Steube, Teepe et al. Leuk Res. 1997; 21(4):327-35), KG-1 (Koeffler and Golde. Science. 1978; 200(4346):1153-4) and Kasumi-1 (Asou, Tashiro et al. Blood. 1991; 77(9):2031-6) AML (Acute Myeloid Leukaemia) cell lines were treated with the broad 5HTR antagonist Apomorphine (CAS no. 314-19-2) at different doses for 72 h. One million cells per mL were seeded in complete RPMI media supplemented with 10% fetal bovine serum in a 96-well plate. The concentration used for the Apomorphine treatment was 0.1, 1 and 10 μM.
The human 5HTR family is composed by 7 subtypes (from 1 to 7) of receptors […]. HL-60, KG-1, MonoMac-1 and Kasumi-1 AML cell lines were incubated with subtype-specific 5HTR antagonists: Apomorphine (type 1, 2 and 5), Methiothepin (type 1 and 2) (CAS no. 74611-28-2), Amperozide (type 2) (CAS no. 75558-90-6), GR113808 (type 4) (CAS no. 144625-51-4). 72 h after treatment, cell viability was determined by flow cytometry. Cells were stained with 7-AAD (CAS no. 7240-37-1) and Hoechst 33342 (CAS no. 23491-52-3). Viability cells were identified by 7-AAD staining exclusion and the presence of Hoechst positive stain. Cell counts were measured by volume. […] In fact, the anti-leukaemic effect was reversed in the presence of a competitive agonist such as the natural ligand 5-HT (CAS no. 153-98-0) or 5-CT (CAS no. 74885-72-6).

primary AML samples = experiment: Clonogenic capacity (CFU-B) of primary AML samples in methylcellulose; type: cell-based, human; settings: 10 μM for 18 h, then 14 days in methylcellulose
Procedure: FIG. 10. The clonogenic capacity of primary AML samples is reduced upon 5HTR antagonist treatment. […] Cells were then cultivated in Methylcellulose supplemented with hematopoietic cytokines for 14 days. The number of CFU-B obtained was measured by microscopy based on morphological criteria. 7 primary AML blood samples were analyzed. Each symbol represents a specific patient sample. Lines represent the median. *p<0.05. CFU-B: Blast colony-forming units.
Taking into account that 5HTR antagonists reduced the cell viability of the most primitive AML population, the clonogenic capacity upon treatment was investigated. Primary patient AML samples were cultured in the presence of Apomorphine and Methiothepin for 18 h and plated in a semi-solid methylcellulose media for 14 days in the presence of instructive cytokines at a concentration of fifty thousand cells per mL. Colonies were counted by light microscopy based on morphology and cellularity.

MonoMac-1 cells = experiment: In vivo xenotransplantation mouse model (NSG mice injected with MonoMac-1 cells); settings: IP every other day, day 7 to 14; apomorphine 5 mg/kg, methiothepin 0.1 mg/kg; versus vehicle
Procedure: FIG. 15. Treatment with 5HTR1 antagonists reduce AML burden in an in vivo xenotransplantation mouse model. 6-8 week-old NOD.Cg-Prkdc^scid Il2rg^tm1Wj1/SzJ (NSG) mice were myeloablated with busulfan (30 mg/kg IP) at day 0. At day 1, 10^6 MonoMac-1 cells were injected IV. From day 7 to day 14, mice were treated IP every other day with apomorphine (5 mg/kg) or methiothepin (0.1 mg/kg), while control mice were treated with saline vehicle (0.9% NaCl). At day 15, mice were sacrificed and their bones (iliac crests, femurs and tibias) were harvested and analyzed for the presence of human cells. Bone marrow samples were measured by flow cytometry. Frequency of human CD45 positive cells (upper panel) and total human CD45 positive cells (lower panel) in BM refer to control. Bars represent the mean value. Error bars represent SEM. **p<0.01; ***p<0.001.
Leukemia cells mainly reside in the bone marrow niche where the stroma cell compartment provides paracrine signaling that strongly mediates their survival and proliferation and protects them from apoptosis ( ). Accordingly, conditioned immunodeficient NOD.Cg-Prkdc^scid Il2rg^tm1Wj1/SzJ (NSG) mice (Sanchez et al Leukemia. 2009 November; 23(11):2109-17) were transplanted with human AML cells and left for 7 days for the leukemia to be established. […]

[2] = system: healthy hematopoietic stem cells; experiment: Secondary transplants of engrafted healthy cells in NSG mice; type: in vivo, mouse
Procedure: FIG. 17. Treatments with 5HTR antagonists reduce the leukemia regeneration capacity of primary AML samples in secondary recipient, without affecting normal hematopoiesis. Upper panel. 3-10×10^5 engrafted bone marrow cells from primary transplanted mice were injected intravenously into secondary recipients (conditioned NSG mice) and left untreated for 8 weeks. Bone marrow cells were analyzed as in FIG. 16. Frequency of human CD45 positive cells referred to control is represented. Lower panel. 50×10^3 engrafted human cells were screened for CFUs. The normalized number of CFUs obtained is represented. *p<0.05; ***p<0.005; ****p<0.0001.
In order to assay the in vivo self-renewal capacity remaining in the engrafted samples, secondary transplants were performed. Less than 35% of AML cells were detected in mice injected with apomorphine- or methiothepin-treated cells (FIG. 17).

healthy blood cells = settings: 0.1, 1 and 10 μM, 24 h or 72 h; healthy donor peripheral blood
[3] = system: primary haematopoietic stem/progenitor cells; experiment: Viability of lineage-negative umbilical cord blood cells; settings: 10 μM, 24 h

CN1CCc2cccc3c2[C@H]1Cc1ccc(O)c(O)c1-3 [Apomorphine, (6aR)-6-methyl-5,6,6a,7-tetrahydro-4H-dibenzo[de,g]quinoline-10,11-diol]
anti-leukaemic effect in the presence of a competitive agonist (5-HT or 5-CT) ([1]; 10 μM antagonist with 5-CT or 5-HT): reversed | cell viability of AML cell lines ([1]; 0.1, 1 and 10 μM, 72 h, HL-60, KG-1, MonoMac-1, Kasumi-1): a reduction in cell viability was detected in a dose-response fashion; also recorded: reduced AML cell viability | cell death on AML cell lines ([1]; subtype-specific 5HTR antagonists, 0.1, 1 and 10 μM, 72 h): induced cell death | clonogenic capacity of primary AML samples (number of CFU-B) (primary AML samples): reduced the clonogenic capacity | AML burden in bone marrow (MonoMac-1 cells): significant reduction in AML burden | self-renewal and differentiation capacity of healthy hematopoietic stem cells in secondary transplants [2]: retained their self-renewal and differentiation capacity | healthy blood cell viability (healthy blood cells): remains unaffected | viability of healthy haematopoietic stem/progenitor cells [3]: remain unaffected
